Measurements reported in PubChem BioAssay AID2060496 (Molecular Pharmacology Branch, DTP, NCI, 2025).

System: 276233-004-R-J1-PDC complex spheroid viability
Test: Anticancer human tumor 276233-004-R-J1-PDC patient-derived colon adenocarcinoma cell line growth inhibition [GQUAD]
Conditions: for IC50: curve of first compound; for viability, T/C: stronger effect = lower value
Outline: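 Viability of tumor cells grown as complex spheroids with endothelial and stromal cells, exposed to drug combinations. Top concentration at or near clinical Cmax (else 10 microM), diluted in half-log increments.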
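Note: spheroids exposed to drugs for seven days.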
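Throughout, for viability, T/C: 100% = DMSO vehicle control viability.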

CCc1c2c(nc3ccc(O)cc13)-c1cc3c(c(=O)n1C2)COC(=O)[C@]3(O)CC + CN(C)c1ccc(Nc2c3ccc(NC(=O)CCN4CCCC4)cc3nc3cc(NC(=O)CCN4CCCC4)ccc23)cc1
IC50 (second compound 0.0316 µM): > 0.316 µM | IC50 (second compound 0.1 µM): > 0.316 µM | IC50 (second compound 0.316 µM): > 0.316 µM | IC50 (second compound 1 µM): > 0.316 µM | IC50 (second compound 3.16 µM): < 0.000999 µM | IC50 (second compound 10 µM): < 0.000999 µM | viability, T/C (second compound 0.0316 µM, first compound 0.000999 µM): 102% | viability, T/C (second compound 0.0316 µM, first compound 0.00316 µM): 104% | viability, T/C (second compound 0.0316 µM, first compound 0.00999 µM): 104% | viability, T/C (second compound 0.0316 µM, first compound 0.0316 µM): 105% | viability, T/C (second compound 0.0316 µM, first compound 0.0999 µM): 108% | viability, T/C (second compound 0.0316 µM, first compound 0.316 µM): 117% | viability, T/C (second compound 0.1 µM, first compound 0.000999 µM): 94.3% | viability, T/C (second compound 0.1 µM, first compound 0.00316 µM): 84.9% | viability, T/C (second compound 0.1 µM, first compound 0.00999 µM): 101% | viability, T/C (second compound 0.1 µM, first compound 0.0316 µM): 107% | viability, T/C (second compound 0.1 µM, first compound 0.0999 µM): 99.7% | viability, T/C (second compound 0.1 µM, first compound 0.316 µM): 117% | viability, T/C (second compound 0.316 µM, first compound 0.000999 µM): 60.1% | viability, T/C (second compound 0.316 µM, first compound 0.00316 µM): 71.1% | viability, T/C (second compound 0.316 µM, first compound 0.00999 µM): 75.7% | viability, T/C (second compound 0.316 µM, first compound 0.0316 µM): 76.4% | viability, T/C (second compound 0.316 µM, first compound 0.0999 µM): 79.5% | viability, T/C (second compound 0.316 µM, first compound 0.316 µM): 91.8% | viability, T/C (second compound 1 µM, first compound 0.000999 µM): 60.3% | viability, T/C (second compound 1 µM, first compound 0.00316 µM): 50.9% | viability, T/C (second compound 1 µM, first compound 0.00999 µM): 67.2% | viability, T/C (second compound 1 µM, first compound 0.0316 µM): 71.6% | viability, T/C (second compound 1 µM, first compound 0.0999 µM): 70% | viability, T/C (second compound 1 µM, first compound 0.316 µM): 89.7% | viability, T/C (second compound 3.16 µM, first compound 0.000999 µM): 50.8% | viability, T/C (second compound 3.16 µM, first compound 0.00316 µM): 46.4% | viability, T/C (second compound 3.16 µM, first compound 0.00999 µM): 72.6% | viability, T/C (second compound 3.16 µM, first compound 0.0316 µM): 70.8% | viability, T/C (second compound 3.16 µM, first compound 0.0999 µM): 75.3% | viability, T/C (second compound 3.16 µM, first compound 0.316 µM): 70.4% | viability, T/C (second compound 10 µM, first compound 0.000999 µM): 44% | viability, T/C (second compound 10 µM, first compound 0.00316 µM): 55.1% | viability, T/C (second compound 10 µM, first compound 0.00999 µM): 59.1% | viability, T/C (second compound 10 µM, first compound 0.0316 µM): 65.9% | viability, T/C (second compound 10 µM, first compound 0.0999 µM): 78.5% | viability, T/C (second compound 10 µM, first compound 0.316 µM): 76.4%
